Columns and labels:
male OF1 mice = test: analgesia test: abdominal stretches induced by PBQ (phenylbenzoquinone); assay type: in vivo; conditions: 10 mg/kg p.o. at 120 minutes
Method: The in vivo activity of the compounds of the invention was evaluated in an analgesia test.
Accordingly, intraperitoneal (i.p.) administration of PBQ (phenylbenzoquinone, 2 mg/kg in a 0.9% sodium chloride solution containing 5% of ethanol) to male OF1 mice weighing 25 to 30 g causes abdominal stretches, on average 30 twists or contractions during the period from 5 to 15 minutes after injection. The test compounds are administered orally (p.o.) or intraperitoneally (i.p.) in suspension in Tween 80 at 0.5%, 60 minutes or 120 minutes before the administration of PBQ.

[1] = molecular target: T1, enzyme FAAH (fatty acid amide hydrolase) (Mus musculus, UniProt O08914); test: radioenzymatic assay of FAAH inhibition (hydrolysis of anandamide [1-3H ethanolamine], mouse brain membrane homogenates); assay type: biochemical; conditions: 10 μM anandamide, 15 minutes at 25° C., read-out: IC50 (concentration inhibiting by 50% the control enzymatic activity of FAAH)
T1 construct: Membrane homogenates are prepared at the time of use by homogenizing the tissues in a Polytron; from tissue; host or cells: mouse brain (minus the cerebellum), membrane homogenate
T1 sequence (O08914 1-579): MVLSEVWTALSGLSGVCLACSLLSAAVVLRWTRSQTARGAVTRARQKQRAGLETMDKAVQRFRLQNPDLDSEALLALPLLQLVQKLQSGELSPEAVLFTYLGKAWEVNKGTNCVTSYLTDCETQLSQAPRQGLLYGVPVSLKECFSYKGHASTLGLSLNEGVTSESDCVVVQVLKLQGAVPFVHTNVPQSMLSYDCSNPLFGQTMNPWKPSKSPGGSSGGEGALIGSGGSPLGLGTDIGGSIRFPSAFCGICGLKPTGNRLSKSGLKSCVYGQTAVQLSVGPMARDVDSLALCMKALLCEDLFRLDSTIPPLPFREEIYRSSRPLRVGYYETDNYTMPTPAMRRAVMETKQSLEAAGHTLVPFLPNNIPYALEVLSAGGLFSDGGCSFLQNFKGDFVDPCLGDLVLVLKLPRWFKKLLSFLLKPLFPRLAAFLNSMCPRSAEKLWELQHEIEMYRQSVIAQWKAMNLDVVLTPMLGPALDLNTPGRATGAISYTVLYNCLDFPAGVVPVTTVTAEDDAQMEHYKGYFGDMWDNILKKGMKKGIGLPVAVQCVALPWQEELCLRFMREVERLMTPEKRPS
Method: The compounds of the invention were subjected to pharmacological tests allowing determination of their inhibitory effect on the enzyme FAAH (fatty acid amide hydrolase).
Accordingly, mouse brains (minus the cerebellum) are removed and stored at −80° C. Membrane homogenates are prepared at the time of use by homogenizing the tissues in a Polytron in a 10 mM Tris-HCl buffer (pH 8.0) containing 150 mM NaCl and 1 mM EDTA. The enzymatic reaction is subsequently conducted in 70 μl of buffer containing bovine serum albumin without fatty acids (1 mg/ml). In succession the test compounds, at various concentrations, anandamide [1-^3H ethanolamine] (specific activity: 15-20 Ci/mmol) diluted to 10 μM with cold anandamide, and the membrane preparation (400 μg of frozen tissue per assay) are added. After 15 minutes at 25° C., the enzymatic reaction is terminated by adding 140 μl of chloroform/methanol (2:1). The mixture is stirred for 10 minutes and then centrifuged for 15 minutes at 3500 g. An aliquot (30 μl) of the aqueous phase containing the ethanolamine [1-^3H] is counted by liquid scintillation.

| Structure (SMILES) | reduction of the number of stretches induced by PBQ (male OF1 mice) [%] | melting point [°C] | IC50 [1] [nM] |
| --- | --- | --- | --- |
| CNC(=O)COC(=O)NCCC1CCN(Cc2ccc(-c3ccc(F)cc3)cc2F)CC1 [Compound 26, 2-(methylamino)-2-oxoethyl 2-{1-[(3,4′-difluorobiphenyl-4-yl)methyl]piperidin-4-yl}ethylcarbamate] | 56 | 143 to 145 | – |
| CNC(=O)COC(=O)NCCC1CCN(Cc2ccc(-c3ccccc3)cc2)CC1 [Compound 25, 2-(methylamino)-2-oxoethyl 2-[1-(biphenyl-4-ylmethyl)piperidin-4-yl]ethylcarbamate] | – | 106 to 110 | 225 |
| CNC(=O)COC(=O)NCC1CCN(CCOc2ccc(Cl)cc2Cl)CC1 [Compound 77] | – | – | 49 |

Source: patent US7781590B2, “Piperidinylalkylcarbamate derivatives, methods for their preparation and the therapeutic use thereof as fatty acid amido hydrolase enzyme inhibitors” (Sanofi-Aventis, priority 2004, dated 2010)
